The text below walks through data of patent publication US20240116882A1, “NOVEL BENZOTRIAZOLE DERIVATIVE HAVING INHIBITORY ACTIVITY AGAINST ECTONUCLEOTIDE PYROPHOSPHATASE-PHOSPHODIESTERASE, AND USE THEREOF” (TXINNO BIOSCIENCE INC., priority 2021, published 2024).

Counter-ions that a name gives are not always drawn.

The target in the assay is T1, human recombinant ENPP1 enzymes (Homo sapiens, UniProt P22413).
T1 construct: purchased R & D systems
T1 sequence (P22413 1-925): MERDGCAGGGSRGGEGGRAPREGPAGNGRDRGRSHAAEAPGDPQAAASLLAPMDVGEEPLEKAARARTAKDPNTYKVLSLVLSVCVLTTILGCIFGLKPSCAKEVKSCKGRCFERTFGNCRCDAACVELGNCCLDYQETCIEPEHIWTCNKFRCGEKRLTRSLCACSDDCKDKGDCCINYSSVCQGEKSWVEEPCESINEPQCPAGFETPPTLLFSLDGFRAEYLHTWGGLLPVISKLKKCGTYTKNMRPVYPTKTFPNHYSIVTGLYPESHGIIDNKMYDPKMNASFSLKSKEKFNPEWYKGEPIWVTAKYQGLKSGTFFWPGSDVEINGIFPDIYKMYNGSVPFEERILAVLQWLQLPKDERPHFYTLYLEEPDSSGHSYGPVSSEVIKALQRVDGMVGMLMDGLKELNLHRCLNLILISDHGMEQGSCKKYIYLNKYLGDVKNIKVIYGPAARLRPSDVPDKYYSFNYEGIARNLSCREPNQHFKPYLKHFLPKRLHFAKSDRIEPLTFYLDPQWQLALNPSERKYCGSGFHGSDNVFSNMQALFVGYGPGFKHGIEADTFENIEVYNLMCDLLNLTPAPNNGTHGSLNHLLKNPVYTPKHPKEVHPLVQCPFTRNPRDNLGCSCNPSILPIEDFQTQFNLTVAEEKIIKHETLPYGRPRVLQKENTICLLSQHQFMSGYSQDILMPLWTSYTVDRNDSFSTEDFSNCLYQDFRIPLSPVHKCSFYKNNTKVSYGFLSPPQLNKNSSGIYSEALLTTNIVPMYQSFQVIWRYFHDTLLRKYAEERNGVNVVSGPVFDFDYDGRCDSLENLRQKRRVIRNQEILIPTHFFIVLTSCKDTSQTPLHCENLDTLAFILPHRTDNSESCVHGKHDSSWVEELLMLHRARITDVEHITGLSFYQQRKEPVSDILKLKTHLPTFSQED
Kind of assay: ENPP1 Enzyme Assay with cGAMP Substrate (AMP-Glo). It is filed as biochemical. The settings on record: human recombinant ENPP1, cGAMP 5 μM, 37° C. 90 minutes, AMP-Glo luminescence; read-out: Enzymatic activity (IC50). The method, then: ENPP1 hydrolyzes nucleotides or nucleotide derivatives to produce nucleoside-5′-monophosphate and pyrophosphate. In addition, ENPP1 hydrolyzes 2′,3′-cGAMP to produce 5′-adenosine monophosphate (AMP) and 5′-guanosine monophosphate (GMP). AMP produced from the reaction is measured using the AMP-Glo® kit (Promega). The AMP-Glo® kit contains two reagents. The first reagent terminates the AMP-producing enzymatic reaction, removes ATP and converts the produced AMP into ADP. The second reagent converts ADP into ATP which is used to generate luminescence in the luciferase reaction. The amount of luminescence measured is proportional to the amount of AMP produced by ENPP1.
The final reaction solution contains 50 mM Tris (pH 8.5) buffer, 250 mM NaCl, 0.5 mM CaCl2), 1 μM ZnCl2, 5% glycerol and 1% DMSO. Serially diluted ENPP1 inhibitors (typically in the range of 10 μM to 0.5 nM) were pre-stored with human recombinant ENPP1 enzymes (R & D systems) at 3 ng/reaction and room temperature (RT) for 5 to 10 minutes. The reaction was initiated by addition of cGAMP (at a final concentration of 5 μM) and reacted at 37° C. for 90 minutes. At the end of the reaction, 10 μl of the AMP-Glo first reagent was added to stop the reaction and the result was stored at room temperature for 1 hour. After storage, 20 μl of an AMP detection solution (a mixture of AMP-Glo II reagent and Kinase-Glo at a ratio of 1:100) was added and stored at room temperature for 1 hour. Luminescence signals were measured using a Victor® plate reader (Perkin Elmer). The maximal activity control (containing enzymes and substrates in the presence of 1% DMSO; MAX) and the minimal activity control (containing substrates and 1% DMSO; MIN) were evaluated simultaneously. In each experiment, serially diluted reference ENPP1 inhibitors were tested as well. IC50, indicating % residual activity versus compound concentration was determined by fitting inhibition curves using the 3-parameter analysis of GraphPad Prism® software. Serially diluted samples of one compound were tested two or more times and an average IC50 of each compound was calculated.
For the compound `COc1cc2nnn(-c3cc(F)c(CN)cc3F)c2cc1OC` [Example 28], the IC50 is > 10 µM.

Consider `COc1ccc2c(c1)nnn2-c1ccc(CN)cc1Cl` [Example 15, 3-chloro-4-(5-methoxy-1H-benzo[d][1,2,3]triazol-1-yl)phenyl)methanamine Hydrochloride], for which the IC50 is < 1 µM.

For `COc1ccc2c(c1)nnn2-c1cccc(CNS(N)(=O)=O)c1` [Example 49, N-(3-(5-methoxy-1H-benzo[d][1,2,3]triazol-1-yl)benzyl)sulfamide], the IC50 lay in the range of 1 to 10 µM.

For `COc1cc2nnn(-c3ccc(CNS(N)(=O)=O)cc3)c2cc1C` [Example 69, N-(4-(5-methoxy-6-methyl-1H-benzo[d][1,2,3]triazol-1-yl)benzyl)sulfamide], the IC50 lay within 1 to 10 µM.

As to `COc1cc(OC)c2nnn(-c3ccc(CN)cc3)c2c1` [Example 9, 4-(4,6-dimethoxy-1H-benzo[d][1,2,3]triazol-1-yl)phenyl)methanamine Hydrochloride], the IC50 lay in the range of 1 to 10 µM.

`COc1ccc2c(c1)nnn2-c1ccc(CNS(=O)(=O)c2ccc(C)cc2)cc1F` [Example 114, N-(3-fluoro-4-(5-methoxy-1H-benzo[d][1,2,3]triazol-1-yl)benzyl)-4-methylbenzenesulfonamide]: the concentration for half-maximal inhibition (IC50) is > 10 µM.

Consider `NS(=O)(=O)NCc1ccc(-n2nnc3ccccc32)c(F)c1F` [Example 57, N-(4-(1H-benzo[d][1,2,3]triazol-1-yl)-2,3-difluorobenzyl)sulfamide], for which the IC50 is < 1 µM.

`COc1ccc2c(c1)nnn2-c1ccc(CNS(C)(=O)=O)cc1F` [Example 112, N-(3-fluoro-4-(5-methoxy-1H-benzo[d][1,2,3]triazol-1-yl)benzyl)methanesulfonamide]: the IC50 is > 10 µM.

Consider `COc1ccc2c(c1)nnn2C1CCC(CNS(N)(=O)=O)CC1` (centres unmarked) [Example 43, N-((4-(5-methoxy-1H-benzo[d][1,2,3]triazol-1-yl)cyclohexyl)methyl)sulfamide], for which the IC50 was < 1 µM.

Take `COc1cc2nnn(-c3ccc4c(c3)CN(S(N)(=O)=O)C4)c2cc1OC` [Example 102, 5-(5,6-dimethoxy-1H-benzo[d][1,2,3]triazol-1-yl)-isoindoline-2-sulfonamide]: the half-maximal inhibitory concentration (IC50) was < 1 µM.

For `COc1ccc2nnn(-c3ccc(CNS(N)(=O)=O)cc3)c2c1` [Example 52, N-(4-(6-methoxy-H-benzo[d][1,2,3]triazol-1-yl)benzyl)sulfamide], the IC50 was < 1 µM.

On to `COc1ccc2c(c1)nnn2-c1ccc(CP(=O)(O)O)cc1` [Example 119], for which the IC50 was < 1 µM.

Take `COc1ccc2c(c1)nnn2CC1CCN(S(N)(=O)=O)CC1` [Example 45, 4-((5-methoxy-1H-benzo[d][1,2,3]triazol-1-yl)methyl)piperidine-1-sulfonamide]: the IC50 was < 1 µM.

On to `COc1ccc2c(c1)nnn2-c1cc(F)c(CN)cc1F` [Example 17], for which the IC50 was > 10 µM.

For the compound `NCc1ccc(-n2nnc3cc(OC(F)F)ccc32)c(F)c1` [Example 24], the concentration for half-maximal inhibition (IC50) is > 10 µM.

For the compound `COc1ccc2c(ccn2-c2ccc(CNS(N)(=O)=O)cc2)c1` [Example 122, N-(4-(5-methoxy-1H-indol-1-yl)benzyl)sulfamide], the IC50 was > 10 µM.

In the case of `COc1ccc2c(c1)nnn2-c1ccc(C(=O)O)cc1F` [Example 116, 3-fluoro-4-(5-methoxy-1H-benzo[d][1,2,3]triazol-1-yl)benzoic Acid], the IC50 is > 10 µM.

`COc1ccc2c(c1)nnn2-c1ccc(N)cc1` [Example 4, 4-(5-methoxy-1H-benzo[d][1,2,3]triazol-1-yl)aniline Hydrochloride]: the IC50 was 1 to 10 µM.

On to `COc1ccc2c(c1)nnn2C1CCC(CN)CC1` (centres unmarked) [Example 2], for which the IC50 was > 10 µM.

Consider `COc1ccc2c(c1)nnn2-c1ccc2c(c1)CN(S(N)(=O)=O)CC2` [Example 97, 7-(5-methoxy-1H-benzo[d][1,2,3]triazol-1-yl)-3,4-dihydroisoquinoline-2(1H)sulfonamide], for which the IC50 was < 1 µM.

Consider `COc1ccc2c(c1)nnn2-c1ccc(CCNS(N)(=O)=O)cc1` [Example 73, N-(4-(5-methoxy-1H-benzo[d][1,2,3]triazol-1-yl)phenethyl)sulfamide Hydrochloride], for which the IC50 is < 1 µM.

With `COc1ccc2c(c1)nnn2-c1ccc2c(c1)CNCCC2` [Example 27, 8-(5-methoxy-1H-benzo[d][1,2,3]triazol-1-yl)-2,3,4,5-tetrahydro-1H-benzo[c]azepine Hydrochloride], the IC50 was > 10 µM.

With `COc1ccc2c(c1)nnn2-c1ccc(CNS(N)(=O)=O)nc1` [Example 78], the IC50 was < 1 µM.

Take `COc1cc2nnn(-c3ccc4c(c3)CNC4)c2cc1OC` [Example 29, 1-(isoindolin-5-yl)-5,6-dimethoxy-1H-benzo[d][1,2,3]triazole Hydrochloride]: the IC50 was > 10 µM.

Consider `COc1ccc2c(c1)nnn2Cc1ccc(CNS(N)(=O)=O)cc1` [Example 105, N-(4-((5-methoxy-1H-benzo[d][1,2,3]triazol-1-yl)methyl)benzyl)sulfamide Hydrochloride], for which the 50% inhibitory concentration (IC50) is > 10 µM.

`COc1ccc2c(c1)nnn2-c1ccc(CNS(N)(=O)=O)cc1OC` [Example 68, N-(3-methoxy-4-(5-methoxy-1H-benzo[d][1,2,3]triazol-1-yl)benzyl)sulfamide]: the IC50 was in the range of 1 to 10 µM.

In the case of `CCS(=O)(=O)NCc1ccc(-n2nnc3cc(OC)ccc32)c(F)c1` [Example 113, N-(3-fluoro-4-(5-methoxy-1H-benzo[d][1,2,3]triazol-1-yl)benzyl)ethanesulfonamide], the concentration for half-maximal inhibition (IC50) was > 10 µM.

With `COc1ccc2c(c1)nnn2-c1ccc(P(=O)(O)O)cc1` [Example 118], the half-maximal inhibitory concentration (IC50) is > 10 µM.

Take `COc1cccc2c1nnn2-c1ccc(CN)cc1` [Example 6, 4-(4-methoxy-1H-benzo[d][1,2,3]triazol-1-yl)phenyl)methanamine Hydrochloride]: the IC50 was > 10 µM.

Turning to `COc1ccc2c(c1)nnn2-c1ccc([C@H](C)N)cc1` [Example 14, (S)-1-(4-(5-methoxy-1H-benzo[d][1,2,3]triazol-1-yl)phenyl)ethan-1-amine Hydrochloride], the IC50 was < 1 µM.

With `COc1cccc2c1nnn2-c1ccc(CNS(N)(=O)=O)cc1` [Example 50, N-(4-(4-methoxy-1H-benzo[d][1,2,3]triazol-1-yl)benzyl)sulfamide], the IC50 was < 1 µM.

In the case of `COc1ccc2c(c1)nnn2C1CCNCC1` [Example 1, 5-methoxy-1-(piperidin-4-yl)-1H-benzo[d][1,2,3]triazole Hydrochloride], the 50% inhibitory concentration (IC50) was > 10 µM.

On to `COc1cc(OC)c2nnn(-c3ccc(CNS(N)(=O)=O)cc3)c2c1` [Example 54, N-(4-(4,6-dimethoxy-1H-benzo[d][1,2,3]triazol-1-yl)benzyl)sulfamide], for which the IC50 was in the range of 1 to 10 µM.

In the case of `COc1ccc2c(c1)nnn2-c1ccc(CNS(N)(=O)=O)cn1` [Example 79, (N-(6-(5-methoxy-1H-benzo[d][1,2,3]triazol-1-yl)pyridin-3-yl)methyl)sulfamide], the IC50 is > 10 µM.

Take `CNCc1ccc(-n2nnc3cc(OC)ccc32)cc1` [Example 12, 1-(4-(5-methoxy-1H-benzo[d][1,2,3]triazol-1-yl)phenyl)-N-methylmethanamine Hydrochloride]: the IC50 is > 10 µM.
